20 compounds from patent US5574015A, “Isosteric antiherpes peptide derivatives” (priority 1994, dated 1996) can be followed below.

Usually EC50 stands for the midpoint of the concentration-response curve.

The subject of the assay is HSV-2. Briefly: Inhibition of Herpes Simplex Virus (HSV-2) replication in cell culture. Format: cell-based, HSV-2 strain HG-52. The procedure: Inhibition of Herpes Simplex Virus (HSV-2). Replication in Cell Culture
BHK-21/C13 cells (ATCC CCL 10) are incubated for two days in 150 cm^2 T-flasks (1.5×10^6 cells/flask) with alpha-MEM medium (Gibco Canada Inc., Burlington, Ontario, Canada) supplemented with 8% (v/v) fetal bovine serum (FBS, Gibco Canada Inc.). The cells are trypsinized and then transferred to fresh media in a 24 well plate to give 2.5×10^5 cells in 750 μL of media per well. The cells are incubated at 37° for a period of 6 h to allow them to adhere to the plate. Thereafter, the cells are washed once with 500 μL of alpha-MEM supplemented with 0.5% (v/v) FBS and then incubated with 750 μL of the see media (low serum) for 3 days. After this period of serum starvation, the low serum medium is removed and the cells are incubated in 500 μL of BBMT for 2 to 3 hours. {BBMT medium is described by P. Brazeau et al., Proc. Natl. Acad. Sci. USA, 79, 7909 (1982).} Thereafter, the cells are infected with HSV-2 (multiplicity of infection=0.02 PFU/cell) in 100 μL of BBMT medium. (Note: The HSV-2 used was strain HG-52, see Y. Langelier and G. Buttin, J. Gen. Virol., 57, 21 (1981); the virus was stored at -80°) Following 1 h of virus adsorption at 37°, the media is removed and the cells are washed with BBMT (3×250 μL). The cells in each well are incubated with or without (control) appropriate concentrations of the test agent dissolved in 200 μL of BBMT medium. After 29 h of incubation at 37°, the infected cells are harvested by first freezing the plate at -80°, followed by thawing. The cells in each well are scraped off the surface of the well with the help of the melting ice fragments. After complete thawing, the cell suspensions are collected and each well is rinsed with 150 μL of BBMT medium. The viral sample (suspension plus washing) is sonicated gently for 4 min at 4°. Cell debris are removed by centrifugation (1000 times gravity for 10 minutes at 4°). The supernatant is collected and stored at -80° until determination of viral titer.
Viral titration was performed by a modification of the colorimetric assay method of M. Langlois et al., Journal of Biological Standardization, 14, 201 (1986).
More specifically, in a similar manner as described above, BHK-21/C13 cells are trypsinized and transferred to fresh media in a 96 well microtiter plate to give 20,000 cells in 100 μL of media per well. The cells in the prepared plate are incubated at 37° for 2 h. During that time, the viral sample is thawed and sonicated gently for 15 seconds, and log dilutions of the sample are prepared (1/5 sequential: 50 μL of the sample plus 200 μL of BBMT medium, sequential dilutions being done with a multichannel pipette.
On completion of the above 2 hour incubation of the BHK-21/C13 cells, the media is replaced with alpha-MEM medium supplemented with 3% (v/v) FBS. The cells are now ready to be infected with the various sample dilutions of virus. Aliquots (50 μL) of the various dilutions are transferred into the appropriate wells of the plate. The resulting infected cells are incubated for 2 days at 37°. Then 50 μL of a 0.15% (v/v) solution of neutral red dye in Hank's Balanced Salt Solution (pH 7.3, Gibco Canada Inc.) is added to each well. The prepared plate is incubated for 45 min at 37°. Medium from each well is then aspirated and the cells are washed once with 200 μL of Hank's Balanced Salt Solution. […]

Setting [1] is: Table II, BHK-21/C13 cells, 29 h incubation, 50% inhibition of virus replication.
The mark [2] stands for this setting: Table V, cell culture assay of example 11.

`Nc1nc2c(ncn2COCCO)c(=O)[nH]1` [acyclovir, reference compound]: the EC50 by setting is: (Human alphaherpesvirus 2, Table III, acyclovir + 2 μM of peptide (title peptide of example 6)) 1.4 µM; (Human alphaherpesvirus 2, Table III, acyclovir + 4 μM of peptide (title peptide of example 6)) 0.9 µM; (Human alphaherpesvirus 2, Table III, acyclovir + 6 μM of peptide (title peptide of example 6)) 0.9 µM; (Human alphaherpesvirus 2, Table III, acyclovir + 8 μM of peptide (title peptide of example 6)) 0.8 µM; (Human alphaherpesvirus 2, Table III, acyclovir + 10 μM of peptide (title peptide of example 6)) 0.42 µM. The “synergism by the isobole method” value (combination of acyclovir and title peptide of example 6, FIG. 1) is reported as “positive result”. For the same compound, the “action of the combination of acyclovir and the peptide versus acyclovir alone” value (combinations with title peptide of example 6, EC50's significantly lower than acyclovir alone) is “synergistic action”. Turning to “Et2 CHNHC(O)--Tbg--CH2 --(R)-CH(CH2 C(O)--CMe3)C(O)--Asp(cyPn)--NHCH2 CMe3”, the EC50 under setting [1] was 56 µM. Under setting [1], “Et2 CHNHC(O)--Tbg--CH2 --(R)-CH{CH2 C(O)--(cyclopentyl)}C(O)--Asp(cyPn)--NHCH2 CMe3” had an EC50 of 50 µM. Under setting [1], “Et2 CHNHC(O)--Tbg--CH2 --(S)-CH{CH2 C(O)--(pyrrolidino)}C(O)--Asp(cyPn)--γMeLeucinol” showed an EC50 of 200 µM. The compound “Me(CH2 =CH--CH2)2 CNHC(O)-Tbg-CH2 --(R)--CH(CH2 C(O)CMe3)C(O)-Asp(cyPn)-NHCH2 CMe3 [Me(CH2 =CHCH2)2 --CNHC(O), NHCH2 CMe3]” came in with an EC50 (Table IV, cell culture assay of example 11) of 30 µM.

With “PhCH2 CH2 C(O)--(N--Me)Val--Tbg--CH2 --(R)-CH(CH2 C(O)CMe3)C(O)--Asp(cyPn)--γMeLeu--NH2”, the concentration for a half-maximal effect (EC50) under setting [1] was 60 µM. On the same count and under the same terms, the same measure for “PhCH2 CH2 C(O)--(N--Me)Val--Tbg--CH2 --(R)-CH(CH2 C(O)CMe3)C(O)--Asp(cyPn)--γMeLeu--OH”: 65 µM. On to “PhCH2 CH2 C(O)--(N-Me)Val-Tbq-CH2 --(R)--CH(CH2 C(O)CMe3)C(O)-Asp(cyPn)-γMeLeucinol [Title Compound of Example 6]”, for which the EC50 reads like this: under setting [1], 15 µM; (Table III, agent alone, BHK-21/C13 cells) 19 µM. In turn, “Pr2 CHNHC(O)--NH--(S)-CH(CMe2 Et)--C(O)--CH2 --(R)-CH(CH2 C(O)CMe3)C(O)--Asp--(cyPn)--NH--(R)-CH(Me)CMe3” came in with an EC50 under setting [2] of 13 µM.

With “Pr2 CHNHC(O)--Tbg--CH2 --(R)-CH(CH2 --C(O)CHMe2)C(O)--Asp(cyPn)--NHCH2 CMe3”, under setting [2], the EC50 turned out to be 39 µM.

The compound “Pr2 CHNHC(O)--Tbg--CH2 --(R)-CH(CH2 --C(O)CMe2 Et)C(O)--Asb(cyPn)--NHCH2 --CMe3” showed an EC50 under setting [2] of 33 µM. As for “Pr2 CHNHC(O)--Tbg--CH2 --(R)-CH(CH2 --C(O)CMe3)C(O)--Asp{(R)-Pr}--NHCH2 CMe3”, the EC50 under setting [2] amounted to 46 µM. The same measure, in the same setting: the same measure for “Pr2 CHNHC(O)--Tbg--CH2 --(R)-CH(CH2 --C(O)CMe3)C(O)--Asp{(R)-allyl}--NHCH2 CMe3”: 62 µM. For the compound “Pr2 CHNHC(O)--Tbg--CH2 --(R)-CH(CH2 C(O)--CMe3)C(O)--Asp(cyPn)--NHCH2 CMe3”, under setting [1], the EC50 was determined as 24 µM.

As to “Pr2 CHNHC(O)--Tbg--CH2 --(R)-CH(CH2 C(O)--CMe3)C(O)--Asp(cyPn)--γMeLeucinol”, under setting [1], it took 30 µM to reach a half-maximal effect (EC50). “Pr2 CHNHC(O)--Tbg--CH2 --(R)-CH--(CH2 C(O)CH2 CMe3)C(CF)--Asp(cyPn)--Leu--OH” displayed an EC50 under setting [2] of 80 µM.

With “Pr2 CHNHC(O)--Tbg--CH2 --(R)-CH{CH2 --C(O)--(1-methylcyclopentyl)}C(O)--Asp(cyPn)--NHCH2 CMe3”, under setting [2], a half-maximal response (EC50) required 35 µM. With “Pr2 CHNHC(O)--Tbg--CH2 --(R)-CH{CH2 --C(O)--(cyclobutyl)}C(O)--Asp(cyPn)--NHCH2 CMe3”, the concentration giving a half-maximal response (EC50) under setting [2] turned out to be 46 µM.

Consider “Pr2 CHNHC(O)--Tbg--CH2 --(R)-CH{CH2 --C(O)--(cyclohexyl)}C(O)--Asp(cyPn)--NHCH2 CMe3”, for which the EC50 under setting [2] was 61 µM. Take “Pr2 CHNHC(O)--Val--CH2 --(R)-CH(CH2 --C(O)CMe3)C(O)--Asp(cyPn)--NH--(R)-CH(Me)CMe3”: the EC50 under setting [2] worked out at 37 µM.
